Measurements reported in patent US20230055705A1, “SUBSTITUTED THIOPHENE CARBOXAMIDES AND DERIVATIVES THEREOF” (Bayer Aktiengesellschaft, priority 2019, published 2023).

system: Pseudomonas syringae pv. tomato; test: Pseudomonas syringae pv. tomato in vitro cell test; type: cell-based; conditions: 20 ppm of active ingredient, 24 h incubation, read-out: efficacy (inhibition of bacteria growth)
Experimental: Culture medium: LB broth medium (Luria Broth Miller) Sigma
Inoculum: bacteria suspension
Compounds were solubilized in DMSO and the solution used to prepare the required range of concentrations. The final concentration of DMSO used in the assay was 1%.
(§1) Inoculum was prepared from a pre-culture of bacteria grown in liquid medium and diluted to the desired optical density (OD).
(§2) Compounds were evaluated for their ability to inhibit bacteria growth in liquid culture assay. The compounds were added in the desired concentrations to culture medium containing the bacteria suspension. After 24 h of incubation, the efficacy of compounds was determined by spectrometric measurement of bacteria growth. Inhibition was determined by comparing the absorbance values in wells containing the compounds with the absorbance in control wells without active ingredients.

SMILES | inhibition at 20 ppm
COC(=O)C(NC(=O)c1sc(Cl)c(Cl)c1Cl)C(=O)OC [I.007] | ≤ 30%
NC(=O)CNC(=O)c1sc(Cl)c(Cl)c1Cl [I.066, N-(2-amino-2-oxoethyl)-3,4,5-trichlorothiophene-2-carboxamide] | ≤ 30%
CCOC(=O)CC[C@H](NC(=O)c1sc(Cl)c(Cl)c1Cl)C(=O)OCC [I.137] | ≤ 30%

system: Alternaria alternata; test: Alternaria alternata in vitro cell test; type: cell-based; conditions: 120 h, 20 ppm of active ingredient, 5 days incubation, read-out: efficacy (inhibition of fungal growth)
Experimental: (§3) • Solvent: DMSO • Culture medium: 14.6 g anhydrous D-glucose (VWR), 7.1 g Mycological Peptone (Oxoid), 1.4 g granulated Yeast Extract (Merck), QSP 1 liter • Inoculum: spores suspension
(§4) Fungicides were solubilized in DMSO and the solution used to prepare the required range of concentrations. The final concentration of DMSO used in the assay was ≤[…]1%.
A spore suspension of A. alternata was prepared and diluted to the desired spore density.
(§5) Fungicides were evaluated for their ability to inhibit spore germination and mycelium growth in liquid culture assay. The compounds were added in the desired concentration to the culture medium with spores. After 5 days incubation, fungi-toxicity of compounds was determined by spectrometric measurement of mycelium growth. Inhibition of fungal growth was determined by comparing the absorbance values in wells containing the fungicides with the absorbance in control wells without fungicides.

SMILES | inhibition at 20 ppm
COC(=O)C(NC(=O)c1sc(Cl)c(Cl)c1Cl)C(=O)OC [I.007] | ≤ 30%
NC(=O)CNC(=O)c1sc(Cl)c(Cl)c1Cl [I.066, N-(2-amino-2-oxoethyl)-3,4,5-trichlorothiophene-2-carboxamide] | ≤ 30%
CCOC(=O)CC[C@H](NC(=O)c1sc(Cl)c(Cl)c1Cl)C(=O)OCC [I.137] | ≤ 30%

system: Xanthomonas campestris pv. campestris; test: In vivo preventive test on Xanthomonas campestris pv. campestris (black rot on cabbage); conditions: 31 ppm of active ingredient, evaluated 8 or 10 days after inoculation, read-out: efficacy
Procedure, shortened: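 Young cabbage plants sprayed with compound in acetone/DMSO/Tween diluted in water; solvent-only controls. Leaves sprayed with bacterial suspension 72 h later, then held 8 or 10 days at 27° C and 95% relative humidity. Efficacy scored 8 or 10 days post-inoculation, 0% matching controls, 100% meaning no disease.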

SMILES | pest or weed control at 31 ppm
CCOC(=O)CC[C@H](NC(=O)c1sc(Cl)c(Cl)c1Cl)C(=O)OCC [I.137] | 80 to 89%

system: Colletotrichum lindemuthianum; test: Colletotrichum lindemuthianum in vitro cell test; type: cell-based; conditions: 144 h, 20 ppm of active ingredient, 6 days incubation, read-out: efficacy (inhibition of fungal growth)
Experimental: as §3, §4
A spore suspension of C. lindemuthianum was prepared and diluted to the desired spore density.
as §5, with “inhibit spores” for “inhibit spore”, “After 6” for “After 5”

SMILES | inhibition at 20 ppm
COC(=O)C(NC(=O)c1sc(Cl)c(Cl)c1Cl)C(=O)OC [I.007] | ≤ 30%
NC(=O)CNC(=O)c1sc(Cl)c(Cl)c1Cl [I.066, N-(2-amino-2-oxoethyl)-3,4,5-trichlorothiophene-2-carboxamide] | ≤ 30%
CCOC(=O)CC[C@H](NC(=O)c1sc(Cl)c(Cl)c1Cl)C(=O)OCC [I.137] | ≤ 30%

system: Colletotrichum lindemuthianum; test: In vivo preventive test on Colletotrichum lindemuthianum (Antrachnose on bean); conditions: 144 h, 31 ppm of active ingredient, inoculation 72 h after spraying, evaluated 6 days after inoculation, read-out: efficacy
Procedure, shortened: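 Young bean plants sprayed preventively with compound in acetone/DMSO/Tween diluted in water, then spore-inoculated 72 h later. Incubation 24 h at 20° C./100% RH, then 5 days at 20° C./90% RH; scored 6 days post-inoculation as % efficacy (0% = solvent-treated control, 100% = no disease).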

SMILES | pest or weed control at 31 ppm
NC(=O)CNC(=O)c1sc(Cl)c(Cl)c1Cl [I.066, N-(2-amino-2-oxoethyl)-3,4,5-trichlorothiophene-2-carboxamide] | 70 to 79%
CCOC(=O)CC[C@H](NC(=O)c1sc(Cl)c(Cl)c1Cl)C(=O)OCC [I.137] | 80 to 89%

system: Pseudomonas syringae pv. tomato; test: In vivo preventive test on Pseudomonas syringae pv. tomato (bacterial speck on tomato); conditions: 31 ppm of active ingredient, evaluated 5 or 6 days after inoculation, read-out: efficacy
Procedure, shortened: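 Young tomato plants sprayed with compound in acetone/DMSO/Tween diluted in water; solvent-only controls. Inoculated 72 h later by spraying leaves with bacterial suspension; 4 days saturated atmosphere then 1–2 days at 70–80% RH, 22 °C day/20 °C night. Efficacy scored 5–6 days post-inoculation, 0% = control, 100% = no disease.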

SMILES | pest or weed control at 31 ppm
COC(=O)C(NC(=O)c1sc(Cl)c(Cl)c1Cl)C(=O)OC [I.007] | 80 to 89%
NC(=O)CNC(=O)c1sc(Cl)c(Cl)c1Cl [I.066, N-(2-amino-2-oxoethyl)-3,4,5-trichlorothiophene-2-carboxamide] | 80 to 89%

system: Peronospora parasitica; test: In vivo preventive test on Peronospora parasitica (Crucifer downy mildew); conditions: Hyaloperonospora parasitica, in Brassica oleracea, 120 h, 31 ppm of active ingredient, cabbage, evaluated 5 days after inoculation, read-out: efficacy
Procedure, shortened: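 Young cabbage plants were sprayed with compound in acetone/DMSO/Tween diluted with water, then inoculated 72 h later with a Peronospora parasitica spore suspension. Plants were kept 5 days at 20 °C and 100% RH. Efficacy was scored with 0% equal to solvent-treated controls and 100% meaning no disease.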

SMILES | pest or weed control at 31 ppm
COC(=O)C(NC(=O)c1sc(Cl)c(Cl)c1Cl)C(=O)OC [I.007] | 90 to 100%
NC(=O)CNC(=O)c1sc(Cl)c(Cl)c1Cl [I.066, N-(2-amino-2-oxoethyl)-3,4,5-trichlorothiophene-2-carboxamide] | 90 to 100%
CCOC(=O)CC[C@H](NC(=O)c1sc(Cl)c(Cl)c1Cl)C(=O)OCC [I.137] | 90 to 100%

same assay, conditions: Hyaloperonospora parasitica, in Brassica oleracea, 120 h, 125 ppm of active ingredient, cabbage, evaluated 5 days after inoculation, read-out: efficacy

SMILES | pest or weed control at 125 ppm
COC(=O)C(NC(=O)c1sc(Cl)c(Cl)c1Cl)C(=O)OC [I.007] | 90 to 100%
NC(=O)CNC(=O)c1sc(Cl)c(Cl)c1Cl [I.066, N-(2-amino-2-oxoethyl)-3,4,5-trichlorothiophene-2-carboxamide] | 90 to 100%
CCOC(=O)CC[C@H](NC(=O)c1sc(Cl)c(Cl)c1Cl)C(=O)OCC [I.137] | 90 to 100%

system: salicylate responsive promoter sequence of the PR1 (pathogenesis-related protein I) gene (AT2G14610); test: Induction of defense gene expression in Arabidopsis thaliana (PR1 promoter-GFP reporter plants); type: in vivo; conditions: Arabidopsis thaliana, 72 h; 75 ppm of compound; 3rd day after spraying; mock treated leaves set as 1.00; read-out: relative fluorescence value
Procedure, shortened: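 Transgenic A. thaliana carrying GFP under the salicylate-responsive PR1 promoter, grown five days, then sprayed with compounds. Whole-plant fluorescence imaged and quantified on day 3 post-spray, expressed relative to mock-treated leaf background set at 1.00.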

SMILES | fold induction at 75 ppm
COC(=O)C(NC(=O)c1sc(Cl)c(Cl)c1Cl)C(=O)OC [I.007] | > 2
NC(=O)CNC(=O)c1sc(Cl)c(Cl)c1Cl [I.066, N-(2-amino-2-oxoethyl)-3,4,5-trichlorothiophene-2-carboxamide] | > 2
CCOC(=O)CC[C@H](NC(=O)c1sc(Cl)c(Cl)c1Cl)C(=O)OCC [I.137] | > 2

same assay, conditions: Arabidopsis thaliana, 72 h; 300 ppm; 3rd day after spraying; mock treated leaves set as 1.00; read-out: relative fluorescence value

SMILES | fold induction at 300 ppm
COC(=O)C(NC(=O)c1sc(Cl)c(Cl)c1Cl)C(=O)OC [I.007] | > 2
NC(=O)CNC(=O)c1sc(Cl)c(Cl)c1Cl [I.066, N-(2-amino-2-oxoethyl)-3,4,5-trichlorothiophene-2-carboxamide] | > 2
CCOC(=O)CC[C@H](NC(=O)c1sc(Cl)c(Cl)c1Cl)C(=O)OCC [I.137] | > 2

system: Xanthomonas campestris pv. campestris; test: Xanthomonas campestris pv. campestris in vitro cell test; type: cell-based; conditions: 20 ppm of active ingredient, 24 h incubation, read-out: efficacy (inhibition of bacteria growth)
Experimental: • Solvent: DMSO • Culture medium: LB broth medium (Luria Broth Miller) Sigma • Inoculum: bacteria suspension
Compounds were solubilized in DMSO and the solution used to prepare the required range of concentrations. The final concentration of DMSO used in the assay was ≤1%.
as §1, §2

SMILES | inhibition at 20 ppm
COC(=O)C(NC(=O)c1sc(Cl)c(Cl)c1Cl)C(=O)OC [I.007] | ≤ 30%
NC(=O)CNC(=O)c1sc(Cl)c(Cl)c1Cl [I.066, N-(2-amino-2-oxoethyl)-3,4,5-trichlorothiophene-2-carboxamide] | ≤ 30%
CCOC(=O)CC[C@H](NC(=O)c1sc(Cl)c(Cl)c1Cl)C(=O)OCC [I.137] | ≤ 30%

system: not listed separately; test: LogP by HPLC on reversed phase columns (EEC directive 79/831 Annex V.A8); type: physicochemical; conditions: reversed phase HPLC columns, given in the preparation examples; method not marked
Procedure, shortened: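 Reversed-phase HPLC per EEC directive 79/831 Annex V.A8. Calibrated with straight-chain alkan-2-ones (C3–C16) of known LogP, LogP from retention times by linear interpolation between successive alkanones. Lambda-max taken from UV spectra (200–400 nm) at chromatographic peak maxima.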

SMILES | chromatographic logP
NC(=O)CNC(=O)c1sc(Cl)c(Cl)c1Cl [I.066, N-(2-amino-2-oxoethyl)-3,4,5-trichlorothiophene-2-carboxamide] | 1.89

same assay, conditions: reversed phase HPLC columns, method [a]: LC-UV, acidic range, 0.1% formic acid in water and acetonitrile as eluent (linear gradient 10% to 95% acetonitrile)

SMILES | chromatographic logP
CCOC(=O)CC[C@H](NC(=O)c1sc(Cl)c(Cl)c1Cl)C(=O)OCC [I.137] | 4.21

same assay, conditions: reversed phase HPLC columns, method [a]: LC-UV, in an acidic range, with 0.1% formic acid in water and acetonitrile as eluent (linear gradient from 10% to 95% acetonitrile)

SMILES | chromatographic logP
COC(=O)C(NC(=O)c1sc(Cl)c(Cl)c1Cl)C(=O)OC [I.007] | 3.31
NC(=O)CNC(=O)c1sc(Cl)c(Cl)c1Cl [I.066, N-(2-amino-2-oxoethyl)-3,4,5-trichlorothiophene-2-carboxamide] | 1.89

system: Uromyces appendiculatus; test: In vivo preventive test on Uromyces appendiculatus (bean rust); conditions: 240 h, 125 ppm of active ingredient, evaluated 10 days after inoculation, read-out: efficacy
Procedure, shortened: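 Young bean plants sprayed with compound in acetone/DMSO/Tween diluted in water, inoculated 72 h later with U. appendiculatus spore suspension. Held 24 h at 20 °C, 100% RH, then 9 days at 20 °C, 70-80% RH. Efficacy scored 10 days post-inoculation versus solvent-treated controls (0% = control, 100% = no disease).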

SMILES | pest or weed control at 125 ppm
COC(=O)C(NC(=O)c1sc(Cl)c(Cl)c1Cl)C(=O)OC [I.007] | 90 to 100%
NC(=O)CNC(=O)c1sc(Cl)c(Cl)c1Cl [I.066, N-(2-amino-2-oxoethyl)-3,4,5-trichlorothiophene-2-carboxamide] | 90 to 100%
CCOC(=O)CC[C@H](NC(=O)c1sc(Cl)c(Cl)c1Cl)C(=O)OCC [I.137] | 90 to 100%
